Results taken from ChEMBL document CHEMBL1201862, “PubChem BioAssay data set” (2004).
Active and inactive are the calls of the source. Rule as the data show it, for most assays here: actives have a measured EC50 and inactives only a lower limit.

How the values were obtained:
H4 = assay: Luminescence Cell-Based Dose Response HTS to Identify Activators of 5'UTR Stem-Loop Driven Prion Protein mRNA Translation in H4 Neuroglioblastoma Cells. [Related pubchem assays: 1829 (Project Summary), 1814 (Primary HTS)]; type: functional; settings: Homo sapiens
[1] = Luminescence Cell-Based Dose Response HTS to Identify Activators of Luciferase Translation or Activity in H4 […] Cells. [Related pubchem assays: 1829 (Project Summary), 1814 (Primary HTS)]; type: functional
[2] = biological target: T1, Replicative DNA helicase DnaB (Mycobacterium tuberculosis, UniProt P9WMR3); assay: DnaB intein splicing inhibitors, dose response, biochemical, cell-free fluorescence (AID 449749); type: functional
T1 sequence (P9WMR3 whole entry): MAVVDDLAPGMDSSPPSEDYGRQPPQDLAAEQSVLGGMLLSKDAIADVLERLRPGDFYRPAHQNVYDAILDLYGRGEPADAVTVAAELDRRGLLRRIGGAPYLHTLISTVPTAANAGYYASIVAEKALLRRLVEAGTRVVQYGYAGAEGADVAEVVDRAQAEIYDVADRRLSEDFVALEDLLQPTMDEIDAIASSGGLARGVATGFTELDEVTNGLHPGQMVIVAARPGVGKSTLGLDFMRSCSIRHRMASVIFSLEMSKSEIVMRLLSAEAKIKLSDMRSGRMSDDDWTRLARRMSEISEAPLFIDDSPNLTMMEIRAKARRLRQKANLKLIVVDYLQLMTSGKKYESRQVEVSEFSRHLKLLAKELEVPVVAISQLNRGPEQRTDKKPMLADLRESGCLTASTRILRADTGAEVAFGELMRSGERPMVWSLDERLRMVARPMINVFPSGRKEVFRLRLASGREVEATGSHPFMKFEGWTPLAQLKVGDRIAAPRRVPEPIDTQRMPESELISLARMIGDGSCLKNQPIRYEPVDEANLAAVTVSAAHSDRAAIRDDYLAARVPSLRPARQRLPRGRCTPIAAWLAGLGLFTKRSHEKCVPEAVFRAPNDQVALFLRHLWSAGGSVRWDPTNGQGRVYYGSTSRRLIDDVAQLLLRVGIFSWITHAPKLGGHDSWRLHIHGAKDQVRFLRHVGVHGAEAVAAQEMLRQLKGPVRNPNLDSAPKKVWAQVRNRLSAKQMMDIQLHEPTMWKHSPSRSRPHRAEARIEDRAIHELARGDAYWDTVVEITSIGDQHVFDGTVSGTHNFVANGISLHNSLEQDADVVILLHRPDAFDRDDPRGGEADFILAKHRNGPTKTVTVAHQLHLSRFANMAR

[3] = biological target: T2, Heat shock factor protein 1 (Mus musculus, UniProt P38532); assay: enhancement of HSF1-driven luciferase signal – cell-based, NIH3T3, luminescence, dose retest, confirmation (AID 435004); type: functional;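 also: stress induced by proteasome inhibitor MG132 added 30 min after compound; luciferase reporter driven by HSF1 response element in NIH3T3 cells; actives raise luminescence as potentiators of the MG132 stress response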
T2 sequence (P38532 whole entry): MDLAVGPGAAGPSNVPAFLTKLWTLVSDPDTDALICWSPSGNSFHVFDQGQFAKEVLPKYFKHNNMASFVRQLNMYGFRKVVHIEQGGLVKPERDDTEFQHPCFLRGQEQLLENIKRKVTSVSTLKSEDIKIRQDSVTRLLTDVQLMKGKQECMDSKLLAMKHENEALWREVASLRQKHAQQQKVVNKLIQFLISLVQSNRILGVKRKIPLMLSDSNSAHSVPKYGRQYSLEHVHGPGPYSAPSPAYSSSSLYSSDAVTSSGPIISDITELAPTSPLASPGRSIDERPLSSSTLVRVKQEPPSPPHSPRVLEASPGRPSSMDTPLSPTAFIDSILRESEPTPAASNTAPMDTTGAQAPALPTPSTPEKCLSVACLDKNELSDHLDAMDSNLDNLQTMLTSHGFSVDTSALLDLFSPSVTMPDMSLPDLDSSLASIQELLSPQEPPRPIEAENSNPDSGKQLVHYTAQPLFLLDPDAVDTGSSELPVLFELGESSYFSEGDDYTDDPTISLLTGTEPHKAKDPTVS

Protein RecA = biological target: T3, Protein RecA (Mycobacterium tuberculosis, UniProt P9WHJ3); assay: Fluorescence Cell-Free Homogeneous Dose Retest to Identify Inhibitors of RecA-Intein Splicing Activity. [Related pubchem assays (depositor defined):AID2097, AID2223, AID489010, AID492950]; type: functional
T3 sequence (P9WHJ3 whole entry): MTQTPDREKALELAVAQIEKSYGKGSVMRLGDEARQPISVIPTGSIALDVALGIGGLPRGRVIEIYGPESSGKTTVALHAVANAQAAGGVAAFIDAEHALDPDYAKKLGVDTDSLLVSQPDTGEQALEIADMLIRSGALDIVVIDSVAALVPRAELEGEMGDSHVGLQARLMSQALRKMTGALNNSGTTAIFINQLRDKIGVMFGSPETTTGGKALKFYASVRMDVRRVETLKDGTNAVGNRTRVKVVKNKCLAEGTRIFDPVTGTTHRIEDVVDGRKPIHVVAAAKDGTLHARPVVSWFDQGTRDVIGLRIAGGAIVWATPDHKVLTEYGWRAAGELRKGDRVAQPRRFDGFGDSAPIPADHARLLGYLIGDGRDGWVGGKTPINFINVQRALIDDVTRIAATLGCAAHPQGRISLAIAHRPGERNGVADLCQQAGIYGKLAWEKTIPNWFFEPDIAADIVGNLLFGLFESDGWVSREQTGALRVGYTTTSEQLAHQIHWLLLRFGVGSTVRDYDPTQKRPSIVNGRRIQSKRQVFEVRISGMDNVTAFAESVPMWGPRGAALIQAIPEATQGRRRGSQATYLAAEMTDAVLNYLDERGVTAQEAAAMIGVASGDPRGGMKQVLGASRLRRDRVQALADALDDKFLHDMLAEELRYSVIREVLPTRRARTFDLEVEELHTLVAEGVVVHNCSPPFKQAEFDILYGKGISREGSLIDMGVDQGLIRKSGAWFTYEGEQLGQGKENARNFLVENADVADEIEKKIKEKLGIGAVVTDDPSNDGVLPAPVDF

[4] = Luminescence Cell-Based Dose Retest to Confirm Inhibitors of Cancer Stem Cells. [Related pubchem assays (depositor defined):AID2717, AID2721]; type: functional; settings: Homo sapiens
INS1 = assay: INS-1E survival protection against cytokine death – cell-based, luminescence, retest, dose response (AID 449756); type: functional; settings: Rattus norvegicus;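 also: cell death triggered by IL-1 beta plus TNF-alpha plus IFN-gamma mixture; protective hits raise ATP signal compared with cytokine alone wells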
[5] = biological target: T4, Corticotropin-releasing factor receptor 2/Corticotropin-releasing factor-binding protein (Homo sapiens, UniProt P24387+Q13324); assay: Dose Response confirmation of uHTS hits for small molecule antagonists of the CRF-binding protein and CRF-R2 receptor complex.; type: functional; settings: read-out: IC50_Mean
T4 sequence (Q13324 whole entry): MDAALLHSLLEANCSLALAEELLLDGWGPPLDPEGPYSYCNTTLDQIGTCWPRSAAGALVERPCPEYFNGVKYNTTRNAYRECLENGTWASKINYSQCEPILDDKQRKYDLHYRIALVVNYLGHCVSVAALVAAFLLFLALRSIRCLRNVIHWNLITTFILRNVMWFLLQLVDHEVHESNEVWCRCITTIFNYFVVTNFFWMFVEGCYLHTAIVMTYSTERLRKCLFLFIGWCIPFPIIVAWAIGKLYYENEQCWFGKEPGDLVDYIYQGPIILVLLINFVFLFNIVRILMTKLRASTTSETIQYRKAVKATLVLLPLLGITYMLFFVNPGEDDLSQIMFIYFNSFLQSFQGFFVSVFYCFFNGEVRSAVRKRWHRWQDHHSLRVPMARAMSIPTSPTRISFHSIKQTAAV
T4 sequence (P24387 whole entry): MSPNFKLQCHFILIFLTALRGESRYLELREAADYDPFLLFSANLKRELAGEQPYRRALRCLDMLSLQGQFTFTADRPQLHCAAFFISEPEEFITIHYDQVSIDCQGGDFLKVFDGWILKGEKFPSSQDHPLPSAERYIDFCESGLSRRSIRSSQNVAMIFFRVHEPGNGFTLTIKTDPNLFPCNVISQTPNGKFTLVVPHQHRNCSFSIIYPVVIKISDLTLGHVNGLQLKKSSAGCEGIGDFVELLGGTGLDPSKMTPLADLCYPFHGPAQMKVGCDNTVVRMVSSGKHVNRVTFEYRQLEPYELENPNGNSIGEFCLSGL

[6] = biological target: T4, Corticotropin-releasing factor receptor 2/Corticotropin-releasing factor-binding protein; assay: activators of CRF receptor 2 with binding protein – uHTS hits, confirmation (AID 602473); type: functional; settings: read-out: EC50_Mean
cells [7] = type: functional, cell-based
cells [8] = type: functional, cell-based; remark: listed apart in the source
cells [9] = assay: cells
[10] = Trypanosoma cruzi growth suppression in host cells – NIH3T3 host cells, beta-gal luminescence, confirmation (AID 2044); type: functional, cell-based;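 also: intracellular parasites grown in NIH/3T3 mouse fibroblasts as host cells; luminescent beta-galactosidase reporter signal from transgenic T. cruzi replicating inside host cells; inhibitors lower the luminescence signal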
[11] = NIH3T3 cell viability loss – ATP luminescence, mouse fibroblasts, counter-screen, dose response (AID 2010); type: functional, cell-based;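 also: cells exposed to compound for about 90 hours before reading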

In the case of `Cc1nn(-c2ccccc2)c(/N=C/c2ccccc2O)c1-c1ccccc1`, the EC50 (H4) is reported as 48.4 µM (active) and the EC50 [1] is reported as 45.7 µM (active).

With `Cc1n[nH]c2c1C(c1cc(Br)cs1)C(C#N)=C(N)O2` (configuration not stated) the AC50 [2] was 12.7 µM (active), the EC50 [3] was 14.6 µM (active) and the EC50 (Protein RecA) was 6.13 µM (active).

For `CN(C)c1ccc2nsnc2c1[N+](=O)[O-]`, the AC50 [2] was > 380 µM (inactive) and the EC50 (Protein RecA) was 8.64 µM (active).

In the case of `CCc1ccc(S(=O)(=O)Nc2ccc(O)c3ccccc23)cc1`, the AC50 [2] is reported as 0.305 µM (active), the AC50 [4] is reported as 5.13 µM (active) and the AC50 (INS1) is reported as 8.73 µM (active). The EC50 (Protein RecA) was 0.0482 µM (active).

With `CNc1nc(Cl)nc(Nc2ccccc2)n1` the IC50 [5] was > 47.1 µM (inactive) and the EC50 [6] was > 53 µM (inactive).

For `COCc1nnc(NC(=O)c2cc(Cl)ccc2OC)s1`, the EC50 (cells [7]) was > 350 µM (not active) and the EC50 (cells [8]) was > 350 µM (not active).

For `CC(C)c1ccc(NC(=O)NC2CCCCC2)cc1`, the EC50 [1] was 0.114 µM (active).

In the case of `CCc1ccc2nc(N(CCN(C)C)C(=O)c3ccc4ncsc4c3)sc2c1`, the EC50 (cells [9]) is reported as 0.088 µM (active), the EC50 [10] is reported as < 0.1 µM (active) and the EC50 [11] is reported as > 60 µM (not active).

For `COc1ccc(/C=C2/CCc3ccccc3C2=O)cc1CN1CCOCC1`, the EC50 (cells [9]) was 0.245 µM (active), the EC50 [10] was < 0.1 µM (active) and the EC50 [11] was > 60 µM (not active).

In the case of `CCOc1ccc(CN2CCCC(N3CCN(c4ccc(OC)cc4)CC3)C2)cc1` (configuration not stated), the EC50 (cells [9]) is reported as 0.042 µM (active), the EC50 [10] is reported as < 0.1 µM (active) and the EC50 [11] is reported as > 60 µM (not active).

In the case of `COc1ccc(CN2CCNC(=O)C2CC(=O)N(C)CC2CCOCC2)cc1OC` (configuration not stated), the EC50 (cells [7]) is reported as > 350 µM (not active) and the EC50 (cells [8]) is reported as > 350 µM (not active).

With `Cc1cc(NC(=O)C23CC4CC(C2)CC(n2cnc([N+](=O)[O-])n2)(C4)C3)no1` the EC50 (cells [9]) was 0.089 µM (active), the EC50 [10] was < 0.1 µM (active) and the EC50 [11] was > 30 µM (not active).

For `Cc1n[nH]c2c1C(c1ccoc1)C(C#N)=C(N)O2` (configuration not stated), the AC50 [2] was 5.36 µM (active) and the EC50 (Protein RecA) was 2.25 µM (active).
